{"source": "paper PMC13147314", "about": "(The Febs Journal, 2025)", "molecules": {"B1": {"name": "glucokinase from Pseudoalteromonas sp. AS-131 wild-type (enzyme, UniProt H7CHS4 1-332, looked up)", "chain": "MSLHSSAQFDPILVADIGGTNARFALITAFDAAKNEFVIEYNHTFPSADFGSLQNATRHYLSTVPHIKPVRACLAVAGPIKAGQVHLTNLGWHFSVSEFKQAFSFLQLEVINDFAAFAYAAPYLDSNQNVVIKAGQADENSNIAVMGPGTGFGAACLVRTAQSSAVLSSEGGHISLAAVTDLDAKLLIELRKEHPHVSLETVFSGPGIAHLYKAMAAVNGITAKHLDAAQISNLANTGECEVCDATLNQFCDWLGSAAGDLALAYGALGGLFIGGGILPRMQSRLLESRFVERFSQKGIMSQYNGQVPVTLVTQDNIPLIGAAACLHNSKQE", "notes": "glucokinase (PsGK) of Pseudoalteromonas sp; AS-131, UniProt H7CHS4; amplified with primers that carry the start and the stop codon and cloned into pET-16b; also called PsGK; PsGK WT; source: E. coli BL21 (DE3), purified (ammonium sulfate fractionation, anion exchange HiTrap Q HP)"}, "B2": {"name": "glucokinase from Escherichia coli wild-type (enzyme, Escherichia coli K-12)", "chain": "TKYALVGDVGGTNARLALCDIASGEISQAKTYSGLDYPSLEAVIRVYLEEHKVEVKDGCIAIACPITGDWVAMTNHTWAFSIAEMKKNLGFSHLEIINDFTAVSMAIPMLKKEHLIQFGGAEPVEGKPIAVYGAGTGLGVAHLVHVDKRWVSLPGEGGHVDFAPNSEEEAIILEILRAEIGHVSAERVLSGPGLVNLYRAIVKADNRLPENLKPKDITERALADSCTDCRRALSLFCVIMGRFGGNLALNLGTFGGVFIAGGIVPRFLEFFKASGFRAAFEDKGRFKEYVHDIPVYLIVHDNPGLLGSGAHLRQTLGHIL", "notes": "glucokinase (EcGK) of Escherichia coli K-12, encoded by glk, UniProt P0A6V8; the gene was amplified from genomic DNA and cloned into pET-16b; also called EcGK; EcGK WT; source: E. coli BL21 (DE3), purified (ammonium sulfate fractionation, anion exchange HiTrap Q HP)"}}, "key": {"PsGK": {"target": "T1, PsGK (Pseudoalteromonas sp. AS-131, UniProt H7CHS4, C325S)", "T1 construct": "gene glk; full length, cloned in pET-16b, expressed in E. coli BL21 (DE3), purified by ammonium sulfate and anion exchange (no tag mentioned); about 35 kDa subunit, 79 kDa homodimer by gel filtration", "T1 sequence (H7CHS4 entry or part of it C325S)": "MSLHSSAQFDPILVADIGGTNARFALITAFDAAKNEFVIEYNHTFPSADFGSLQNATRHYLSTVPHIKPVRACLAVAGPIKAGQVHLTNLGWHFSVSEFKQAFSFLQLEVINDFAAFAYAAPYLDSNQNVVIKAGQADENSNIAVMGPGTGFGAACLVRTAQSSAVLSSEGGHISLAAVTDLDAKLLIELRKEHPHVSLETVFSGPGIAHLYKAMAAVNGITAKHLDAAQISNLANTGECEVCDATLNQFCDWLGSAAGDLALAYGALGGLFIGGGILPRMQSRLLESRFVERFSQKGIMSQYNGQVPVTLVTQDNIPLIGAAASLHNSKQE", "assay": "G6PD-coupled NADPH assay at […] nm, Lineweaver-Burk", "assay_type": "biochemical", "details": "1, 25 and 40 °C"}, "EcGK": {"target": "T2, EcGK (Escherichia coli, UniProt P0A6V8)", "T2 construct": "gene glk; full length, cloned in pET-16b, expressed in E. coli BL21 (DE3), purified by ammonium sulfate and anion exchange (no tag mentioned); about 35 kDa subunit, 59 kDa homodimer by gel filtration", "T2 sequence (P0A6V8 2-321)": "B2 chain", "assay": "G6PD-coupled NADPH assay at […] nm, Lineweaver-Burk", "assay_type": "biochemical", "details": "25 °C, pH 7.6, 20 mM Tris-HCl, 10 mM MgCl2, co-substrate glucose, 1 mM DTT; also measured at 1 and 40 °C"}, "purified protein": {"substrate": "Nc1ncnc2c1ncn2[C@@H]1O[C@H](COP(=O)(O)OP(=O)(O)OP(=O)(O)O)[C@@H](O)[C@H]1O", "assay": "purified protein", "assay_type": "biochemical, Pseudoalteromonas sp. AS-131", "details": "25 °C, pH 7.6, 20 mM Tris-HCl, 10 mM MgCl2, co-substrate glucose, 1 mM DTT, also measured at 1 and 40 °C"}, "[1]": {"target": "the molecule itself", "assay": "SEC; gel filtration on HiLoad 16/60 Superdex 200 prep grade; molecular weights estimated and compared with about 35 kDa by SDS/PAGE; monomers to dimer"}}}
{"molecule": "Nc1ncnc2c1ncn2[C@@H]1O[C@H](COP(=O)(O)OP(=O)(O)OP(=O)(O)O)[C@@H](O)[C@H]1O", "note": "[ATP]", "values": [{"measurement": "K m", "setting": "PsGK; pH 7.6, 10 mM MgCl2, co-substrate glucose", "result": "the catalytic efficiency (k cat/K m) of C325S exceeded that of WT"}, {"measurement": "K m", "setting": "EcGK", "result": "1110 ± 80", "unit": "µM"}]}
{"molecule": "OC[C@H]1OC(O)[C@H](O)[C@@H](O)[C@@H]1O", "note": "(stereo partly drawn) [glucose]", "values": [{"measurement": "K m", "setting": "PsGK; pH 7.6, 10 mM MgCl2, co-substrate ATP", "result": "the catalytic efficiency (k cat/K m) of C325S exceeded that of WT"}]}
{"molecule": "B1", "values": [{"measurement": "Km", "setting": "purified protein", "result": "1550 ± 170", "unit": "µM"}, {"measurement": "stoichiometry N", "setting": "[1]", "result": 2}]}
{"molecule": "B2", "values": [{"measurement": "stoichiometry N", "setting": "[1]", "result": 2}]}
